How the values were obtained:
[1] = system: E. coli: Escherichia coli IF03927; assay: Permeability of pathogenic microbes when treatment sheets were laid on vomit; assay type: cell-based; design: unit not given here; conditions: 1000 ppm available chlorine
Description: (§1) 1) Chlorous acid aqueous solution formulation (see Example 1: Table 11) Treatment sheet (material: 100% cotton): (about 27×40 cm) *Impregnated at a ratio of weight of treatment sheet (g): amount of liquid (ml)=1:3 2) Imitation vomit (hereinafter, referred to as vomit) Miso solution: adjusted to pH 2 with hydrochloric acid 3) Test Microbes that were used E. coli: Escherichia coli IF03927 Staphylococcus aureus: Staphylococcus aureus IF0 12732 Thermoduric Microbes (Bacillus cereus): Bacillus cereus NBRC15305 Microbes of the genus Salmonella: Salmonella Enteritidis IF03313 Enterohemorrhagic Escherichia coli 0157: Escherichia coli 0157 Enterohemorrhagic Escherichia coli 0111: Escherichia coli 0111 Enterohemorrhagic Escherichia coli 026: Escherichia coli O26
(§2) Permeability of pathogenic microbes into a treatment sheet when treating vomit was examined to compare effects of preventing secondary contamination. (1) Imitation vomit is spread in an area about the size of an A4 sheet. (2) 30 agent solution-containing treatment sheets were laid thereon and left standing for 10 minutes. (3) Treatment sheets were removed one at a time from the top. After diluting with saline, the sample was spread in a petri dish and cultured.

[2] = system: Staphylococcus aureus IF0 12732; assay: as above; assay type: cell-based; design: unit not given here; conditions: 1000 ppm available chlorine
Description: as §1, §2

[3] = system: Thermoduric Microbes (Bacillus cereus): Bacillus cereus NBRC15305; assay: as above; assay type: cell-based; design: unit not given here; conditions: 1000 ppm available chlorine
Description: as §1, §2

[4] = Deodorizing effect (chemical deodorization, gas detector tube); conditions: 400 ppm, spray 20 cc
Description: In order to evaluate tests on deodorizing effects, the present Example examined deodorizing effects by using standards regarding air freshening and deodorization ([II]-2 Method of Testing Deodorizing Efficacy (Chemical Deodorization)) set forth by the Air Fresheners and Deodorizers Conference (http://www.houkou.gr.jp/) as the efficacy testing method, which is adopted by Japan Food Research Laboratories.
Ammonium odor: Ammonium Standard Solution II (Wako Pure Chemical Industries, for testing malodorous substances) Amine odor: methyl mercaptan standard solution (Wako Pure Chemical Industries, for testing malodorous substances) Sulfur odor: hydrogen sulfide (self-made, used hydrogen sulfide that was generated by adding sulfuric acid to zinc sulfide)
Gas detector tube made by GASTEC Corporation Ammonium odor: Detector tube ammonium 3 L made by GASTEC Corporation Amino odor: Detector tube methyl mercaptan 71 made by GASTEC Corporation Sulfur odor: Detector tube hydrogen sulfide 4 LL made by GASTEC Corporation
Tests were conducted in compliance with ([II]-2 Method of Testing Deodorizing Efficacy (Chemical Deodorization)) set forth by the Air Fresheners and Deodorizers Conference.
The tests were carried out by static culture method, using a commercially-available airbag with a spigot having a volume of about 10 L as test containers. The volume of airbags was appropriately changed in accordance with the size of the product.
The bags were filled with odorless air. Malodor concentrations were measured over time at room temperature (about 20° C.). (3 points or higher, detection tube method (FIG. 16), measured by an instrument analysis method or olfactory measurement method. When decrease in the blank was observed, the decrease was suitably corrected. When measuring by olfactory measuring method, the airbag spigot was opened for direct sniffing, or gas was transferred to an odor bag while wearing a mask to perform olfactory measurement in an autonomic respiration form. Measured air was not returned to the source).
For ammonium odor, the residual concentrations were detected and recorded for control (no specimen), 20 ml (cc) of distilled water, sodium hypochlorite (expressed as Na hypochlorite, 400 ppm), and chlorous acid aqueous solution (expressed as CAAS, 400 ppm) prior to spraying and 0 hour, 3 hours, 6 hours, 9 hours, and 24 hours after spraying.
It is known that an odorous substance adsorbs to an airbag and naturally decreases when the odorous substance is in the airbag. In this regard, the amount of loss due to such a natural decrease was measured to normalize the observed values in a control segment.
For the values, the values of the raw data were recorded. The concentration prior to spraying was adjusted and the controls were normalized to be 100. The results are shown in the following Table (In the Table, Cont indicates controls and h indicates time).

[5] = system: pathogenic microbes; assay: Preventing secondary contamination upon treating vomit, summary over all tested microbes; assay type: cell-based
Description: as §1, §2

SMILES: OCl [Sodium Hypochlorite, sodium hypochlorite]
- microbes in treatment sheet laid on imitation vomit ([1]; 1 sheet, Day 0 at 25° C.): <10
- microbes in treatment sheet laid on imitation vomit ([1]; 1 sheet, Day 7 at 25° C.): >10^6
- microbes in treatment sheet laid on imitation vomit ([1]; 2 sheets, Day 0 at 25° C.): <10
- microbes in treatment sheet laid on imitation vomit ([1]; 2 sheets, Day 7 at 25° C.): >10^6
- microbes in treatment sheet laid on imitation vomit ([1]; 3 sheets, Day 0 at 25° C.): <10
- microbes in treatment sheet laid on imitation vomit ([1]; 3 sheets, Day 7 at 25° C.): >10^6
- microbes in treatment sheet laid on imitation vomit ([1]; 4 sheets, Day 0 at 25° C.): <10
- microbes in treatment sheet laid on imitation vomit ([1]; 4 sheets, Day 7 at 25° C.): >10^6
- microbes in treatment sheet laid on imitation vomit ([1]; 5 sheets, Day 0 at 25° C.): <10
- microbes in treatment sheet laid on imitation vomit ([1]; 5 sheets, Day 7 at 25° C.): >10^6
- microbes in treatment sheet laid on imitation vomit ([1]; 6 sheets, Day 0 at 25° C.): <10
- microbes in treatment sheet laid on imitation vomit ([1]; 6 sheets, Day 7 at 25° C.): >10^6
- microbes in treatment sheet laid on imitation vomit ([1]; 8 sheets, Day 0 at 25° C.): <10
- microbes in treatment sheet laid on imitation vomit ([1]; 8 sheets, Day 7 at 25° C.): >10^6
- microbes in treatment sheet laid on imitation vomit ([1]; 10 sheets, Day 0 at 25° C.): <10
- microbes in treatment sheet laid on imitation vomit ([1]; 10 sheets, Day 7 at 25° C.): >10^6
- microbes in treatment sheet laid on imitation vomit ([1]; 20 sheets, Day 0 at 25° C.): <10
- microbes in treatment sheet laid on imitation vomit ([1]; 20 sheets, Day 7 at 25° C.): >10^6
- microbes in treatment sheet laid on imitation vomit ([1]; 30 sheets, Day 0 at 25° C.): <10
- microbes in treatment sheet laid on imitation vomit ([1]; 30 sheets, Day 7 at 25° C.): >10^6
- microbes in treatment sheet laid on imitation vomit ([2]; 1 sheet, Day 0 at 25° C.): <10
- microbes in treatment sheet laid on imitation vomit ([2]; 1 sheet, Day 7 at 25° C.): >10^6
- microbes in treatment sheet laid on imitation vomit ([2]; 2 sheets, Day 0 at 25° C.): <10
- microbes in treatment sheet laid on imitation vomit ([2]; 2 sheets, Day 7 at 25° C.): >10^6
- microbes in treatment sheet laid on imitation vomit ([2]; 3 sheets, Day 0 at 25° C.): <10
- microbes in treatment sheet laid on imitation vomit ([2]; 3 sheets, Day 7 at 25° C.): >10^6
- microbes in treatment sheet laid on imitation vomit ([2]; 4 sheets, Day 0 at 25° C.): <10
- microbes in treatment sheet laid on imitation vomit ([2]; 4 sheets, Day 7 at 25° C.): >10^6
- microbes in treatment sheet laid on imitation vomit ([2]; 5 sheets, Day 0 at 25° C.): <10
- microbes in treatment sheet laid on imitation vomit ([2]; 5 sheets, Day 7 at 25° C.): >10^6
- microbes in treatment sheet laid on imitation vomit ([2]; 6 sheets, Day 0 at 25° C.): <10
- microbes in treatment sheet laid on imitation vomit ([2]; 6 sheets, Day 7 at 25° C.): >10^6
- microbes in treatment sheet laid on imitation vomit ([2]; 8 sheets, Day 0 at 25° C.): <10
- microbes in treatment sheet laid on imitation vomit ([2]; 8 sheets, Day 7 at 25° C.): 1.1 × 10^4
- microbes in treatment sheet laid on imitation vomit ([2]; 10 sheets, Day 0 at 25° C.): <10
- microbes in treatment sheet laid on imitation vomit ([2]; 10 sheets, Day 7 at 25° C.): 7.1 × 10^2
- microbes in treatment sheet laid on imitation vomit ([2]; 20 sheets, Day 0 at 25° C.): <10
- microbes in treatment sheet laid on imitation vomit ([2]; 20 sheets, Day 7 at 25° C.): <10
- microbes in treatment sheet laid on imitation vomit ([2]; 30 sheets, Day 0 at 25° C.): <10
- microbes in treatment sheet laid on imitation vomit ([2]; 30 sheets, Day 7 at 25° C.): <10
- microbes in treatment sheet laid on imitation vomit ([3]; 1 sheet, Day 0 at 25° C.): <10
- microbes in treatment sheet laid on imitation vomit ([3]; 1 sheet, Day 7 at 25° C.): >10^6
- microbes in treatment sheet laid on imitation vomit ([3]; 2 sheets, Day 0 at 25° C.): <10
- microbes in treatment sheet laid on imitation vomit ([3]; 2 sheets, Day 7 at 25° C.): >10^6
- microbes in treatment sheet laid on imitation vomit ([3]; 3 sheets, Day 0 at 25° C.): <10
- microbes in treatment sheet laid on imitation vomit ([3]; 3 sheets, Day 7 at 25° C.): >10^6
- microbes in treatment sheet laid on imitation vomit ([3]; 4 sheets, Day 0 at 25° C.): <10
- microbes in treatment sheet laid on imitation vomit ([3]; 4 sheets, Day 7 at 25° C.): >10^6
- microbes in treatment sheet laid on imitation vomit ([3]; 5 sheets, Day 0 at 25° C.): <10
- microbes in treatment sheet laid on imitation vomit ([3]; 5 sheets, Day 7 at 25° C.): >10^6
- microbes in treatment sheet laid on imitation vomit ([3]; 6 sheets, Day 0 at 25° C.): <10
- microbes in treatment sheet laid on imitation vomit ([3]; 6 sheets, Day 7 at 25° C.): >10^6
- microbes in treatment sheet laid on imitation vomit ([3]; 8 sheets, Day 0 at 25° C.): <10
- microbes in treatment sheet laid on imitation vomit ([3]; 8 sheets, Day 7 at 25° C.): 1.1 × 10^4
- microbes in treatment sheet laid on imitation vomit ([3]; 10 sheets, Day 0 at 25° C.): <10
- microbes in treatment sheet laid on imitation vomit ([3]; 10 sheets, Day 7 at 25° C.): 7.1 × 10^2
- microbes in treatment sheet laid on imitation vomit ([3]; 20 sheets, Day 0 at 25° C.): <10
- microbes in treatment sheet laid on imitation vomit ([3]; 20 sheets, Day 7 at 25° C.): <10
- microbes in treatment sheet laid on imitation vomit ([3]; 30 sheets, Day 0 at 25° C.): <10
- microbes in treatment sheet laid on imitation vomit ([3]; 30 sheets, Day 7 at 25° C.): <10
- residual concentration of ammonium, after correction (Control = 100) ([4]; 0 h after spraying): 9
- residual concentration of ammonium, before correction ([4]; 0 h after spraying): 30 ppm
- residual concentration of ammonium, after correction (Control = 100) ([4]; 3 h after spraying): 17
- residual concentration of ammonium, before correction ([4]; 3 h after spraying): 50 ppm
- residual concentration of ammonium, after correction (Control = 100) ([4]; 6 h after spraying): 21
- residual concentration of ammonium, before correction ([4]; 6 h after spraying): 50 ppm
- residual concentration of ammonium, after correction (Control = 100) ([4]; 9 h after spraying): 23
- residual concentration of ammonium, before correction ([4]; 9 h after spraying): 40 ppm
- residual concentration of ammonium, after correction (Control = 100) ([4]; 24 h after spraying): 28
- residual concentration of ammonium, before correction ([4]; 24 h after spraying): 40 ppm
- residual concentration of ammonium, after correction (Control = 100) ([4]; before spraying): 100
- residual concentration of ammonium, before correction ([4]; before spraying): 320 ppm
- sterilization/removal of pathogenic microbes in stacked treatment sheets [5]: able to sterilize pathogenic microbes from the first sheet

Reference: US20170015555A1, “LONG-TERM PRESERVATION AND NOVEL APPLICATION OF CHLOROUS ACID AQUEOUS SOLUTION FORMULATION” (priority 2013, published 2017)
